Reference: publication PMC8703450, “New Heterocyclic Combretastatin A-4 Analogs: Synthesis and Biological Activity of Styryl-2(3H)-benzothiazolones” (Pharmaceuticals, 2021)

What was measured:
Colon-26 cells = assay: MTT cytotoxicity assay, Colon-26; type: cell-based; conditions: Mus musculus, 72 h
Protocol: All tested compounds were dissolved in DMSO at 25 mM initial concentration and diluted with medium to obtain the working concentrations (0.01 nM–250 µM). Serial drug dilutions were prepared in medium immediately before each experiment. The DMSO working concentration in the medium was […]. For the MTT assay, cells were seeded into 96-well microtitre plates at a density of 1 × 10^4 in 100 µL complete medium per well. They were further incubated for 24 h, followed by treatment with CA-4 analogs up to 72 h. Cell viability was determined using the MTT assay. Ten µL of MTT solution (5 mg/mL) was added to each well and further incubated for 3 h at 37 °C. To dissolve the formazan product, 100 µL/well of 99.5% isopropanol was added. Cell viability was determined by measuring absorbance at 550/630 nm using a DTX880 plate reader (Beckman Coulter, USA). Results, expressed as concentrations that inhibit 20% (IC20), 50% (IC50), and 80% (IC80) of cell growth, were calculated using GraphPad Prism 8.0.1.
Table S 3.1. Description of eukaryotic cell lines used for MTT assay.
Panel Cell line Origin Tissue, characteristics Source Culture conditions […]
(h) lung carcinoma ATCC, CCL-185 U/mL penicillin, 100 […]
lung, bronchus; insulin, rhEGF, GA-BEAS-2B h epithelial virus ATCC, CRL- 1000, BPE, transformed 9609 transferrin,
HT-29 h colon, colorectal Radostina adenocarcinoma Alexandrova 3.1 g/L D-Glucose […]

EA.hy926 cells = assay: Cell cycle analysis (propidium iodide, flow cytometry); type: cell-based, human; conditions: 300 nM 26Z or 10 nM CA-4
Protocol: A total of 5 × 10^5 cells was treated with 26Z and CA-4 for time-response assays. Cells were collected by scraping, pelleted, washed with cold PBS (1×), and fixed overnight at 4 °C with 1 mL of ice-cold methanol–acetone (1:1), added dropwise to the pellet while vortexing. Pellets were resuspended and washed in 500 μL of PBS (1×), then permeabilized with a Triton X-100 (0.05–0.1%)/DNA extraction buffer (0.2 M Na2HPO4, 0.04 M citric acid, pH 7.8) in a 1:1 ratio for 15 min. After that, pelleted cells were treated with RNAse A (20 μg/mL) and labeled with 10 μg/mL of propidium iodide (Sigma-Aldrich) by incubation at 37 °C for at least 30 min, protected from light. DNA content was measured using a FACS Calibur flow cytometer ([…], NJ, USA), and cell cycle analysis was performed with FlowJo software (version 8.7). At least 10,000 events were recorded for each sample measured in duplicate.

Structure (SMILES) | IC50 (Colon-26 cells) | cells in G2/M (EA.hy926 cells; EA.hy926, 4 h) | cells in G2/M (EA.hy926 cells; EA.hy926, 24 h)
COc1ccc(/C=C\c2cc(OC)c(OC)c(OC)c2)cc1O [CA-4, Combretastatin A-4] | 660 ± 82 nM | – | –
COc1cc(/C=C\c2ccc3c(c2)sc(=O)n3C)cc(OC)c1OC [Compound 26Z, (Z)-3-methyl-6-(3,4,5-trimethoxystyryl)-2(3H)-benzothiazolone] | – | ~ 35% | ~ 78%
